ChEMBL document CHEMBL1275273, “QSAR prediction of D2 receptor antagonistic activity of 6-methoxy benzamides” (Eur J Med Chem, 2010)

Molecular target: D(2) dopamine receptor (Homo sapiens, UniProt P14416)
Test: Antagonist activity at dopamine D2 receptor
Type: functional

Sequence of D(2) dopamine receptor (P14416 whole entry): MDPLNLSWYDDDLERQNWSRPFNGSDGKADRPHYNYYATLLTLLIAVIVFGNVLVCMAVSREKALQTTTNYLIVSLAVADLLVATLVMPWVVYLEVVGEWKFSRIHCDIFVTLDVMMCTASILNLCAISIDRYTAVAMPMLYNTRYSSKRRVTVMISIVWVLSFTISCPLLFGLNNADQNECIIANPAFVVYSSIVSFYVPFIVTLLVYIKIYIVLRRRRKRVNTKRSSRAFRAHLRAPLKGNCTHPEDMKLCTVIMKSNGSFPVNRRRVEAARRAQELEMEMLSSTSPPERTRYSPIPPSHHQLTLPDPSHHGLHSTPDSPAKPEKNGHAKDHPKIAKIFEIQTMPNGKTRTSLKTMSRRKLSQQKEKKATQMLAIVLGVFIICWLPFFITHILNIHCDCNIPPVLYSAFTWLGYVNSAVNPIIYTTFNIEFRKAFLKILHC

Structure (SMILES) | IC50 [nM]
CCN1CCC[C@H]1CNC(=O)c1cc(Cl)ccc1OC | 257
CCN1CCC[C@H]1CNC(=O)c1cc(Br)ccc1OC | 45.7
CCN1CCC[C@H]1CNC(=O)c1cccc(O)c1OC | 316
CCCc1ccc(OC)c(C(=O)NC[C@@H]2CCCN2CC)c1 | 67.6
CCN1CCC[C@H]1CNC(=O)c1c(OC)ccc(Cl)c1Cl | 20
CCN1CCC[C@H]1CNC(=O)c1c(Cl)ccc(O)c1OC | 64.6
CCN1CCC[C@H]1CNC(=O)c1c(OC)ccc(O)c1OC | 8.71
CCN1CCC[C@H]1CNC(=O)c1cc(F)cc(O)c1OC | 363
CCN1CCC[C@H]1CNC(=O)c1cc(Cl)cc(O)c1OC | 38.9
CCN1CCC[C@H]1CNC(=O)c1c(Br)c(Cl)cc(O)c1OC | 57.5
CCc1c(Cl)cc(O)c(OC)c1C(=O)NC[C@@H]1CCCN1CC | 12
CCN1CCC[C@H]1CNC(=O)c1cc(Br)cc(O)c1OC | 8.32
CCN1CCC[C@H]1CNC(=O)c1c(Cl)c(Br)cc(O)c1OC | 17
CCN1CCC[C@H]1CNC(=O)c1c(Br)c(Br)cc(O)c1OC | 25.7
CCN1CCC[C@H]1CNC(=O)c1c(OC)c(O)cc(Br)c1[N+](=O)[O-] | 186
CCN1CCC[C@H]1CNC(=O)c1c(Cl)c(C)cc(O)c1OC | 25.7
CCN1CCC[C@H]1CNC(=O)c1cc(OC)cc(O)c1OC | 204

Structure (SMILES) | IC50 [nM]
CCN1CCC[C@H]1CNC(=O)c1c(Br)c(OC)cc(O)c1OC | 67.6
CCc1c(Br)cc(O)c(OC)c1C(=O)NC[C@@H]1CCCN1CC | 17
CCc1ccc(OC)c(C(=O)NC[C@@H]2CCCN2CC)c1 | 39.8
CCN1CCC[C@H]1CNC(=O)c1c(Cl)c(Cl)cc(O)c1OC | 32.4
CCN1CCC[C@H]1CNC(=O)c1c(Cl)c(OC)cc(O)c1OC | 70.8
CCN1CCC[C@H]1CNC(=O)c1c(Br)ccc(O)c1OC | 56.2
CCN1CCC[C@H]1CNC(=O)c1c(C)c(Cl)cc(O)c1OC | 11
CCc1ccc(OC)c(C(=O)NC[C@@H]2CCCN2CC)c1Br | 11
CCN1CCC[C@H]1CNC(=O)c1c(C)c(Br)cc(O)c1OC | 11
CCN1CCC[C@H]1CNC(=O)c1cc(C)cc(O)c1OC | 19.1
CCCc1c(Cl)cc(O)c(OC)c1C(=O)NC[C@@H]1CCCN1CC | 110
CCc1ccc(O)c(OC)c1C(=O)NC[C@@H]1CCCN1CC | 123
CCCc1c(C)cc(O)c(OC)c1C(=O)NC[C@@H]1CCCN1CC | 141
CCN1CCC[C@H]1CNC(=O)c1cc([N+](=O)[O-])cc(O)c1OC | 3020
CCN1CCC[C@H]1CNC(=O)c1c(OC)cccc1OC | 52.5
CCN1CCC[C@H]1CNC(=O)c1c(OC)ccc(Br)c1O | 10

The next compounds have a lower IC50 than those just listed; values first:

IC50 [nM] | Structure (SMILES)
0.288 | CCN1CCC[C@H]1CNC(=O)c1c(OC)c(O)cc(I)c1OC
1.1 | CCN1CCC[C@H]1CNC(=O)c1c(OC)ccc(SC)c1OC
1.29 | CCc1cc(O)c(OC)c(C(=O)NC[C@@H]2CCCN2CC)c1OC
2.69 | CCCCc1ccc(OC)c(C(=O)NC[C@@H]2CCCN2CC)c1OC
5.62 | CCN1CCC[C@H]1CNC(=O)c1c(OC)ccc(Cl)c1Br
4.17 | CCc1ccc(OC)c(C(=O)NC[C@@H]2CCCN2CC)c1Cl
1.41 | CCN1CCC[C@H]1CNC(=O)c1c(OC)c(O)cc(Br)c1OC
3.02 | CCN1CCC[C@H]1CNC(=O)c1cc(I)cc(O)c1OC
7.76 | CCN1CCC[C@H]1CNC(=O)c1c(C)c(C)cc(O)c1OC
2.88 | CCc1cc(O)c(OC)c(C(=O)NC[C@@H]2CCCN2CC)c1
1.51 | CCc1cc(O)c(OC)c(C(=O)NC[C@@H]2CCCN2CC)c1F
0.912 | CCc1cc(O)c(OC)c(C(=O)NC[C@@H]2CCCN2CC)c1Cl
2.29 | CCc1cc(O)c(OC)c(C(=O)NC[C@@H]2CCCN2CC)c1Br
0.501 | CCCc1cc(O)c(OC)c(C(=O)NC[C@@H]2CCCN2CC)c1
3.24 | CCCc1cc(O)c(OC)c(C(=O)NC[C@@H]2CCCN2CC)c1Cl
5.5 | CCN1CCC[C@H]1CNC(=O)c1c(Br)c(C)cc(O)c1OC
5.25 | CCN1CCC[C@H]1CNC(=O)c1c(OC)ccc(C)c1OC
1.78 | CCc1cc(O)c(OC)c(C(=O)NC[C@@H]2CCCN2CC)c1CC
1.7 | CCN1CCC[C@H]1CNC(=O)c1c(OC)c(O)cc(Cl)c1OC
7.94 | CCN1CCC[C@H]1CNC(=O)c1c(OC)ccc(Br)c1Br
7.08 | CCN1CCC[C@H]1CNC(=O)c1c(F)c(Br)cc(O)c1OC
5.01 | CCCc1cc(O)c(OC)c(C(=O)NC[C@@H]2CCCN2CC)c1C
0.676 | CCN1CCC[C@H]1CNC(=O)c1c(OC)ccc(I)c1OC
1.29 | CCc1ccc(OC)c(C(=O)NC[C@@H]2CCCN2CC)c1OC
